Numbered stars: 1 amine (or outer) side, 2 acyl side, 3 side chain; on linkers, the order of the positions; unused ones are H or OH. Bridge positions count the residues as written; N and C are the ends. Square brackets hold non-standard residues; d marks the D form. Peptide text beside a SMILES is read from it. * marks the point of attachment. X35 = CC1(C)C(=CC=CC=CC2=[N+](CCCCS(=O)(=O)[O-])c3ccccc3C2(C)C)N(CCCCCC(=O)N2CCN(Cc3cc(C[*:1])cc(C[*:2])c3)CC2)c2ccccc21; X7 = O=C(CCP(=O)(O)CN1CCN(CP(=O)(O)CO)CCN(CP(=O)(O)CO)CC1)NCCSCc1cc(C[*:1])cc(C[*:2])c1; DOTA = O=C(O)CN1CCN(CC(=O)O)CCN(CC(=O)*)CCN(CC(=O)O)CC1; Bip = N[C@@H](Cc1ccc(-c2ccccc2)cc1)C(=O)O; Oic = O=C(O)[C@@H]1C[C@@H]2CCCC[C@@H]2N1; 1Nal = N[C@@H](Cc1cccc2ccccc12)C(=O)O; mXylylene = c1cc(C[*:1])cc(C[*:2])c1; NMeF = CN[C@@H](Cc1ccccc1)C(=O)O; Hexanoyl = CCCCCC(=O)*; Ahx = NCCCCCC(=O)O; Sar = CNCC(=O)O
Columns and labels:
[1] = biological target: T1, FAP-expressing human WI-38 fibroblasts (Homo sapiens, UniProt Q12884); assay: Competitive FACS binding assay
T1 construct: FAP-expressing human WI-38 fibroblasts (ECACC) were cultured in EMEM; host or cells: WI-38 human fibroblasts
T1 sequence (Q12884 whole entry): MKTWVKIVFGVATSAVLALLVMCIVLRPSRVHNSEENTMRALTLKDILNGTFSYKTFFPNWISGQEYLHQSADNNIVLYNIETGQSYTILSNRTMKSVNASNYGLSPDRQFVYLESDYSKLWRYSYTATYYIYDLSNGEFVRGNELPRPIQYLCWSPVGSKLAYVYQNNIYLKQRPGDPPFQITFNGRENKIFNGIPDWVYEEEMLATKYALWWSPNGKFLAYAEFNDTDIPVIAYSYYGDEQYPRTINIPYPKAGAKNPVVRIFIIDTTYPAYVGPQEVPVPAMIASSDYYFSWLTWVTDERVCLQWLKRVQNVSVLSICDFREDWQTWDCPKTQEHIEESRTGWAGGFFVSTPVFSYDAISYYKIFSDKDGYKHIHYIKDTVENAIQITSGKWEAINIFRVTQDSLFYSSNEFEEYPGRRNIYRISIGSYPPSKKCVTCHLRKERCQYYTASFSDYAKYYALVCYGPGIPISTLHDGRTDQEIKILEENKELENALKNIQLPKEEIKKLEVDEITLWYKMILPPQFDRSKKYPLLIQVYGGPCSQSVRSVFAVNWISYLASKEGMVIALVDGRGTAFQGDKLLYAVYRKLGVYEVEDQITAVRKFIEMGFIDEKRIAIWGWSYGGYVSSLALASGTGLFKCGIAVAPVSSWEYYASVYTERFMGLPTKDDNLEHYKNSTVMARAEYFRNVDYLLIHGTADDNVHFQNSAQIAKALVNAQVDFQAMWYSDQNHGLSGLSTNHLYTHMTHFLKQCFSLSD
Procedure: Cells were analyzed in an Attune NxT flow cytometer. […] […].
Cells were analyzed in an Attune NxT flow cytometer. […]

[2] = biological target: Human recombinant FAP (Homo sapiens, UniProt Q12884); assay: FRET-based FAP protease activity assay; type: biochemical; design: purchased R&D systems 3715-SE
Sequence of Human recombinant FAP (Q12884 whole entry): as above

[3] = pIC50 Category (Activity), FRET-based FAP protease activity assay, recombinant human FAP, 37° C.
[4] = pIC50 Category (Activity), FRET-peptide substrate, 37° C.
[5] = pIC50 Category (activity), Recombinant human FAP

IC50 [1]	IC50 [2, 3]	Molecule	also measured
100 to 794 nM	100 to 794 nM	C[C@@H](O)[C@@H]1NC(=O)[C@@H]2CCCN2C(=O)[C@@H]2CCCN2C(=O)[C@@H](NC(=O)CCCCCNC(=O)CN2CCN(CC(=O)O)CCN(CC(=O)O)CCN(CC(=O)O)CC2)CSCc2cccc(c2)CSC[C@@H](C(=O)N[C@@H](CC(=O)O)C(=O)N[C@@H](Cc2c[nH]cn2)C(=O)N(C)[C@@H](Cc2ccccc2)C(=O)N[C@@H](CCCNC(=N)N)C(=O)N[C@@H](CC(=O)O)C(N)=O)NC(=O)[C@H](Cc2ccccc2)NC(=O)[C@H](CCC(=O)O)NC1=O [3BP-3266, DOTA-Ahx-[Cys(3MeBn)-Pro-Pro-Thr-Glu-Phe-Cys]-Asp-His-Nmf-Arg-Asp-NH2] ({DOTA-Ahx}-CPPTEFCDH[NMeF]RD-NH2; linker 1-7 via mXylylene)	
		CCCCCC(=O)N[C@H]1CSCc2cc(CSCCNC(=O)CCP(=O)(O)CN3CCN(CP(=O)(O)CO)CCN(CP(=O)(O)CO)CC3)cc(c2)CSC[C@@H](C(=O)O)NC(=O)[C@H](Cc2ccccc2)NC(=O)[C@H](CCC(=O)O)NC(=O)[C@H]([C@@H](C)O)NC(=O)[C@@H]2CCCN2C(=O)[C@@H]2CCCN2C1=O [3BP-4816, Hex-[C(tMeBn(GaNOPO-AET))-PPTEFC]-OH] (Hexanoyl-CPPTEFC-OH; linker 1-7 via X7)	pIC50 Category (FACS) ([1]; FAP-expressing human WI-38 fibroblasts): B (category B for pIC50 values between 7.1 and 8.0); pIC50 Category (activity) ([2]; Recombinant human FAP): B (category B for pIC50 values between 7.1 and 8.0)
100 to 794 nM	100 to 794 nM	CSCC[C@H](NC(C)=O)C(=O)N[C@H]1CSCc2cccc(c2)CSC[C@@H](C(=O)N[C@@H](CC(=O)O)C(=O)N[C@@H](Cc2c[nH]cn2)C(=O)N[C@@H](Cc2ccccc2)C(=O)N[C@@H](CCCNC(=N)N)C(=O)N[C@@H](CC(=O)O)C(N)=O)NC(=O)[C@H](Cc2ccccc2)NC(=O)[C@H](CCC(=O)O)NC(=O)[C@H]([C@@H](C)O)NC(=O)[C@@H]2C[C@@H]3CCCC[C@@H]3N2C(=O)[C@@H]2CCCN2C1=O [3BP-3217, Ac-Met-[Cys(3MeBn)-Pro-Oic-Thr-Glu-Phe-Cys]-Asp-His-Phe-Arg-Asp-NH2] (Ac-MCP[Oic]TEFCDHFRD-NH2; linker 2-8 via mXylylene)	
10 to 79.4 nM	10 to 79.4 nM	CCCCCC(=O)N[C@H]1CSCc2cccc(c2)CSC[C@@H](C(N)=O)NC(=O)[C@H](Cc2cccc3ccccc23)NC(=O)[C@H](CCC(=O)O)NC(=O)[C@H]([C@@H](C)O)NC(=O)[C@@H]2CCCN2C(=O)[C@@H]2CCCN2C1=O [3BP-3361, Hex-[Cys(3MeBn)-Pro-Pro-Thr-Glu-1Ni-Cys]-NH2] (Hexanoyl-CPPTE[1Nal]C-NH2; linker 1-7 via mXylylene)	
< 10 nM	< 10 nM	CCCCCC(=O)N[C@H]1CSCc2cccc(c2)CSC[C@@H](C(=O)N[C@@H](CC(=O)O)C(=O)N[C@@H](CCCNC(=N)N)C(N)=O)NC(=O)[C@H](Cc2ccccc2)NC(=O)[C@H](CCC(=O)O)NC(=O)[C@H]([C@@H](C)O)NC(=O)[C@@H]2CCCN2C(=O)[C@@H]2CCCN2C1=O [3BP-3299, Hex-[Cys(3MeBn)-Pro-Pro-Thr-Glu-Phe-Cys]-Asp-Arg-NH2] (Hexanoyl-CPPTEFCDR-NH2; linker 1-7 via mXylylene)	
		Hex-[Cys(3MeBn)-Pro-Pro-Thr-Glu-Phe-Cys]-Asp-Omp-Arg-NH2 [3BP-3302]	pIC50 Category (FACS) ([1]; competition with 3 nM Cy5-labeled compound, WI-38 fibroblasts, 4° C., 1 hour): A (pIC50 category A stands for pIC50 values >8.0); pIC50 Category (activity) ([2]; FRET-based FAP protease activity assay, recombinant human FAP, 37° C.): A (pIC50 category A stands for pIC50 values >8.0)
100 to 794 nM	10 to 79.4 nM	CCCCCC(=O)N[C@H]1CSCc2cccc(c2)CSC[C@@H](C(N)=O)NC(=O)[C@H](Cc2ccccc2)NC(=O)[C@H](CCC(=O)O)NC(=O)[C@H]([C@@H](C)O)NC(=O)[C@@H]2CCCN2C(=O)CN(C)C1=O [3BP-3347, Hex-[Cys(3MeBn)-Nmg-Pro-Thr-Glu-Phe-Cys]-NH2] (Hexanoyl-C[Sar]PTEFC-NH2; linker 1-7 via mXylylene)	
> 1000 nM	> 1000 nM	CCCCCC(=O)N[C@H]1CSCc2cccc(c2)CSC[C@@H](C(N)=O)NC(=O)[C@H](Cc2ccc(-c3ccccc3)cc2)NC(=O)[C@H](CCC(=O)O)NC(=O)[C@H]([C@@H](C)O)NC(=O)[C@@H]2CCCN2C(=O)[C@@H]2CCCN2C1=O [3BP-3363, Hex-[Cys(3MeBn)-Pro-Pro-Thr-Glu-Bip-Cys]-NH2] (Hexanoyl-CPPTE[Bip]C-NH2; linker 1-7 via mXylylene)	
< 10 nM		CCCCNC(=O)N[C@H]1CSCc2cccc(c2)CSC[C@@H](C(=O)N[C@@H](CCCCNC(=O)C(CNCCN)CNCCN)CC(=O)O)NC(=O)[C@H](Cc2ccccc2)NC(=O)[C@H](CCC(N)=O)NC(=O)[C@H]([C@@H](C)O)NC(=O)[C@@H]2CCCN2C(=O)[C@@H]2CCCN2C1=O [3BP-4589, nBu-CAyl-[Cys(3MeBn)-Pro-Pro-Thr-Gln-Phe-Cys]-Bhk(N4Ac)—OH]	IC50 [2, 4]: < 10 nM
> 1000 nM	100 to 794 nM	CC(=O)N[C@@H](CCO)C(=O)N[C@H]1CSCc2cccc(c2)CSC[C@@H](C(N)=O)NC(=O)[C@H](Cc2ccccc2)NC(=O)[C@H](CCC(N)=O)NC(=O)[C@H]([C@@H](C)O)NC(=O)[C@@H]2CCCN2C(=O)[C@@H]2CCCN2C1=O [3BP-3763, Ac-Hse-[Cys(3MeBn)-Pro-Pro-Thr-Gln-Phe-Cys]-NH2]	
10 to 79.4 nM	10 to 79.4 nM	CSCC[C@@H](NC(C)=O)C(=O)N[C@H]1CSCc2cc(CSCCNC(=O)CN3CCN(CC(=O)O)CCN(CC(=O)O)CCN(CC(=O)O)CC3)cc(c2)CSC[C@@H](C(=O)O)NC(=O)[C@H](Cc2ccccc2)NC(=O)[C@H](CCC(N)=O)NC(=O)[C@H]([C@@H](C)O)NC(=O)[C@@H]2CCCN2C(=O)[C@@H]2CCCN2C1=O [3BP-3682, Ac-met-[Cys(tMeBn(DOTA-AET))-Pro-Pro-Thr-Gln-Phe-Cys]-OH]	
> 1000 nM	> 1000 nM	C[C@@H](O)[C@@H]1NC(=O)[C@@H]2CCCN2C(=O)[C@@H]2CCCN2C(=O)[C@@H](NC(=O)CCCS(N)(=O)=O)CSCc2cccc(c2)CSC[C@@H](C(N)=O)NC(=O)[C@H](Cc2ccccc2)NC(=O)[C@H](CCC(N)=O)NC1=O [3BP-3860, H2NSO2-But-[Cys(3MeBn)-Pro-Pro-Thr-Gln-Phe-Cys]-NH2]	
		CCCCCC(=O)N[C@H]1CSCc2cc(CSCCNC(=O)CN3CCN(CC(N)=O)CCN(CC(N)=O)CCN(CC(N)=O)CC3)cc(c2)CSCC(C(=O)O)NC(=O)[C@H](Cc2ccccc2)NC(=O)[C@H](CCC(N)=O)NC(=O)[C@H]([C@@H](C)O)NC(=O)[C@@H]2CCCN2C(=O)[C@@H]2CCCN2C1=O (stereo partly drawn) [3BP-5323, Hex-[Cys(tMeBn(DOTAM-AET))-Pro-Pro-Thr-Gln-Phe-Cys]-OH]	IC50 [2, 5]: < 10 nM
< 10 nM		C=CCCOC(=O)N[C@H]1CSCc2cc(CSCCNC(=O)CN3CCN(CC(=O)O)CCN(CC(=O)O)CCN(CC(=O)O)CC3)cc(c2)CSC[C@@H](C(=O)O)NC(=O)[C@H](Cc2ccccc2)NC(=O)[C@H](CCC(N)=O)NC(=O)[C@H]([C@@H](C)O)NC(=O)[C@@H]2CCCN2C(=O)[C@@H]2CCCN2C1=O [3BP-3916, Bulloc-[Cys(tMeBn(DOTA-AET))-Pro-Pro-Thr-Gln-Phe-Cys]-OH]	IC50 [2, 4]: 10 to 79.4 nM
		CCCCCC(=O)N[C@H]1CSCc2cc(CSCCNC(=O)COc3ccc4nc3CN(CC(=O)O)CCN(CC(=O)O)CCN(CC(=O)O)C4)cc(c2)CSC[C@@H](C(=O)O)NC(=O)[C@H](Cc2ccccc2)NC(=O)[C@H](CCC(N)=O)NC(=O)[C@H]([C@@H](C)O)NC(=O)[C@@H]2CCCN2C(=O)[C@@H]2CCCN2C1=O [3BP-5363, Hex-[C(tMeBn(LaAcPCTA-AET))-PPTQFC]-OH]	pIC50 Category (activity) ([2]; Recombinant human FAP): B (category B for pIC50 values between 7.1 and 8.0)
	100 to 794 nM	CCCCCC(=O)N[C@H]1CSCc2cc(CSCCNC(=O)CCCCCN3C(=CC=CC=CC4=[N+](CCCCS(=O)(=O)[O-])c5ccccc5C4(C)C)C(C)(C)c4ccccc43)cc(c2)CSC[C@@H](C(=O)O)NC(=O)[C@H](Cc2ccccc2)NC(=O)[C@H](CCC(N)=O)NC(=O)[C@H]([C@@H](C)O)NC(=O)[C@@H]2CCCN2C(=O)[C@@H]2CCCN2C1=O [3BP-3694, Hex-[Cys(tMeBn(Cy5SO3-AET))-Pro-Pro-Thr-Gln-Phe-Cys]-OH]	
	10 to 79.4 nM	CCCCCC(=O)N[C@H]1CSCc2cc(cc(CN3CCN(C(=O)CCCCCN4C(=CC=CC=CC5=[N+](CCCCS(=O)(=O)[O-])c6ccccc6C5(C)C)C(C)(C)c5ccccc54)CC3)c2)CSC[C@@H](C(=O)N[C@@H](CC(=O)O)C(N)=O)NC(=O)[C@H](Cc2ccccc2)NC(=O)[C@H](CCC(N)=O)NC(=O)[C@H]([C@@H](C)O)NC(=O)[C@@H]2CCCN2C(=O)[C@@H]2CCCN2C1=O [3BP-3693, Hex-[Cys(tMeBn(Cy5SO3-PP))-Pro-Pro-Thr-Gln-Phe-Cys]-Asp-NH2] (Hexanoyl-CPPTQFCD-NH2; linker 1-7 via X35)	

Molecule	IC50 [1]	IC50 [2, 3]	also measured
CCCCCC(=O)N[C@H]1CSCc2cc(CSCCNC(=O)CCC(=O)NCCCOCCOCCOCCCNC(=O)[C@H](CO)NC(=O)[C@H](CO)NC(=O)[C@H](CO)NC(=O)CS)cc(c2)CSC[C@@H](C(=O)O)NC(=O)[C@H](Cc2ccccc2)NC(=O)[C@H](CCC(N)=O)NC(=O)[C@H]([C@@H](C)O)NC(=O)[C@@H]2CCCN2C(=O)[C@@H]2CCCN2C1=O [3BP-4308, Hex-[Cys-(tMeBn(H-SAc-Ser-Ser-Ser-Ttds-AET))-Pro-Pro-Thr-Gln-Phe-Cys]-OH]	10 to 79.4 nM		IC50 [2, 4]: 10 to 79.4 nM
CCCCCC(=O)N[C@H]1CSCc2cc(CSCCNC(=O)COCCOCCNC(=O)CCC(C(=O)O)N3CCN(CC(=O)O)CCN(CC(=O)O)CC3)cc(c2)CSCC(C(N)=O)NC(=O)[C@H](Cc2ccccc2)NC(=O)[C@H](CCC(N)=O)NC(=O)[C@H]([C@@H](C)O)NC(=O)[C@@H]2CCCN2C(=O)[C@@H]2CCCN2C1=O (stereo partly drawn) [3BP-4708, Hex-[Cys(tMeBn(NODAGA-O2Oc-AET))-Pro-Pro-Thr-Gln-Phe-Cys]-NH2]	< 10 nM		IC50 [2, 5]: < 10 nM

Source: US20230212549A1, “COMPOUNDS COMPRISING A […] LIGAND AND USE THEREOF” (priority 2021, published 2023)
